In patent publication US10344025B2, “GLS1 inhibitors for treating disease” (Board of Regents, The University of Texas System, priority 2014, dated 2019):
pEC50, pIC50: −log10 of the molar value.

What was measured:
[1] = target: purified recombinant human GAC (GLS1) (Homo sapiens (Human), UniProt O94925); assay: GLS1 Enzymatic Activity Assay (dual-coupled enzymatic assay, resorufin/Amplex UltraRed readout); format: biochemical;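 note: glutamate from GAC coupled via glutamate oxidase and peroxidase to resorufin, read as fluorescence (ex 530, em 590 nm) kinetically or at 20 min, four-parameter logistic IC50 fit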
A549 cells = assay: Proliferation Assay (A549 viability, Cell Titer Fluor, 72 hours); format: cell-based; conditions: Homo sapiens
Experimental: A549 cells were routinely maintained in RPMI 1640 media (Gibco catalog number 11875-093) supplemented with 10% dialyzed fetal bovine serum using a humidified incubator (37° C., 5% CO2 and ambient O2). In preparation for the viability assay, cells were inoculated into 384-well black CulturPlates (Perkin Elmer) at a density of 1000 cells/well in a volume of 40 uL. Following a 24-hour incubation at 37° C., 5% CO2 and ambient O2, cells were treated with compound (10 uL) in a final DMSO concentration of 0.5% (v/v). The microplates were then incubated for 72 hours (37° C., 5% CO2 and ambient O2). Cell Titer Fluor (Promega) was subsequently added (10 uL of 6× reagent) and mixed for 15 minutes at room temperature. The plates were then incubated for 30 minutes (37° C., 5% CO2 and ambient O2) and fluorescence was subsequently read on the Perkin Elmer Envision plate reader. IC50 values were calculated using a four-parameter logistic curve fit.
Non-limiting examples include the following compounds and pharmaceutically acceptable salts thereof. […] “ND” indicates no data.

purified recombinant human GAC (GLS1), sequence (O94925 other isoform, or with tags, fused parts or gaps): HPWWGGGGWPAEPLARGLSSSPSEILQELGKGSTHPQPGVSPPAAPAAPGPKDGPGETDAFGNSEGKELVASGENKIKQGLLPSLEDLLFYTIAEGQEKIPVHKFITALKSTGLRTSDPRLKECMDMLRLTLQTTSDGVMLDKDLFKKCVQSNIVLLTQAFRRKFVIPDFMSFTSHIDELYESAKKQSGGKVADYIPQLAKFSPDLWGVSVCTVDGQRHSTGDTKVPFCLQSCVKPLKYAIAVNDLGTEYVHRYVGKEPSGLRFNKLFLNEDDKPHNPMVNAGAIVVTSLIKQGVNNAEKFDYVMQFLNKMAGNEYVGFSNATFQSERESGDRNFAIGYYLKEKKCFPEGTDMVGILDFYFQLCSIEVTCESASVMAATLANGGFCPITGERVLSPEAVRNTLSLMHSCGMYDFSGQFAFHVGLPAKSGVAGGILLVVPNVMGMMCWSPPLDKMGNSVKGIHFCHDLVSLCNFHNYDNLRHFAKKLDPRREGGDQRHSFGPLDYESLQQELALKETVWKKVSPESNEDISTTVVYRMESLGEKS

Row | SMILES | pIC50 [1] | pEC50 (A549 cells; A549, 72 h) | pEC50 (A549 cells)
1 | CNC(=O)c1cn(CC(F)CCc2nnc(C(=O)NCc3cc(C(F)(F)F)ccn3)s2)nn1 (racemic) [Example 508, 5-(3-fluoro-4-(4-(methylcarbamoyl)-1H-1,2,3-triazol-1-yl)butyl)-N-((4-(trifluoromethyl)pyridin-2-yl)methyl)-1,3,4-thiadiazole-2-carboxamide] | 6.30 to 7.00 | – | 6.30 to 7.00
2 | CNC(=O)c1cn(C[C@@H](F)CCc2nnc(C(=O)NCc3cc(C(F)(F)F)ccn3)s2)nn1 (single isomer, unassigned) [Example 220] | 6.30 to 7.00 | 5.30 to 6.30 | –
3 | CNC(=O)c1cn(C[C@H](F)CCc2nnc(C(=O)NCc3cc(C(F)(F)F)ccn3)s2)nn1 (single isomer, unassigned) [Example 221] | 6.30 to 7.00 | 6.30 to 7.00 | –
4 | NC(=O)c1cn(CCCCc2nnc(NC(=O)Cc3cccc(OC(F)(F)F)c3)s2)nn1 [Example 3, 1-(4-(5-(2-(3-(Trifluoromethoxy)phenyl)acetamido)-1,3,4-thiadiazol-2-yl)butyl)-1H-1,2,3-triazole-4-carboxamide] | 6.30 to 7.00 | 6.30 to 7.00 | –
5 | O=C(Cc1ccccc1)Nc1nnc(CCCCCn2cc(C(=O)NCc3ccccc3)nn2)s1 [Example 4, N-Benzyl-1-(5-(5-(2-phenylacetamido)-1,3,4-thiadiazol-2-yl)pentyl)-1H-1,2,3-triazole-4-carboxamide] | 6.30 to 7.00 | 6.30 to 7.00 | –
6 | COCCNC(=O)c1nnc(CCCCc2ccc(NC(=O)Cc3cccc(OC(F)(F)F)c3)nn2)s1 [Example 6, N-(2-methoxyethyl)-5-(4-(6-(2-(3-(trifluoromethoxy)phenyl)acetamido)pyridazin-3-yl)butyl)-1,3,4-thiadiazole-2-carboxamide] | > 7.00 | > 7.00 | –
7 | COCCNC(=O)c1nnc(CCCCn2cc(C(=O)NCc3cccc(C(F)(F)F)c3)nn2)s1 [Example 7, N-(2-methoxyethyl)-5-(4-(4-(3-(trifluoromethyl)benzylcarbamoyl)-1H-1,2,3-triazol-1-yl)butyl)-1,3,4-thiadiazole-2-carboxamide] | 6.30 to 7.00 | 6.30 to 7.00 | –
8 | O=C(Cc1cccc(OC(F)(F)F)c1)Nc1nnc(CCCCn2cc(C(=O)NCC3CCOC3)nn2)s1 (stereo not drawn) [Example 12, N-(oxolan-3-ylmethyl)-1-[4-(5-{2-[3-(trifluoromethoxy)phenyl]acetamido}-1,3,4-thiadiazol-2-yl)butyl]-1H-1,2,3-triazole-4-carboxamide] | > 7.00 | > 7.00 | –
9 | O=C(Cc1ccccc1)Nc1nnc(CCCCn2cc(C(=O)NCCc3ccccc3)nn2)s1 [Example 13, 1-{4-[5-(2-phenylacetamido)-1,3,4-thiadiazol-2-yl]butyl}-N-(2-phenylethyl)-1H-1,2,3-triazole-4-carboxamide] | > 7.00 | 5.30 to 6.30 | –
10 | O=C(Cc1ccccc1)Nc1nnc(CCCCn2cc(C(=O)NCc3ccccc3)nn2)s1 [Example 15, N-benzyl-1-{4-[5-(2-phenylacetamido)-1,3,4-thiadiazol-2-yl]butyl}-1H-1,2,3-triazole-4-carboxamide] | > 7.00 | 6.30 to 7.00 | –
11 | CNC(=O)c1cn(CC(F)CCc2ccc(NC(=O)Cc3cc(OC(C)C(F)(F)F)ccn3)nn2)nn1 (stereo not drawn) [Example 266, 1-(2-fluoro-4-(6-(2-(4-((1,1,1-trifluoropropan-2-yl)oxy)pyridin-2-yl)acetamido)pyridazin-3-yl)butyl)-N-methyl-1H-1,2,3-triazole-4-carboxamide] | – | > 7.00 | –
12 | CNC(=O)c1cn(C[C@H](F)CCc2ccc(NC(=O)Cc3cc(C(F)(F)F)cc(C)n3)nn2)nn1 [Example 268, (R)-1-(2-fluoro-4-(6-(2-(6-methyl-4-(trifluoromethyl)pyridin-2-yl)acetamido)pyridazin-3-yl)butyl)-N-methyl-1H-1,2,3-triazole-4-carboxamide] | – | > 7.00 | –
13 | CNC(=O)c1cn(C[C@H](F)CCc2ccc(NC(=O)Cc3cc(OC4CC(F)(F)C4)ccn3)nn2)nn1 [Example 272, (R)-1-(4-(6-(2-(4-(3,3-difluorocyclobutoxy)pyridin-2-yl)acetamido)pyridazin-3-yl)-2-fluorobutyl)-N-methyl-1H-1,2,3-triazole-4-carboxamide] | – | > 7.00 | –
14 | CNC(=O)c1cn(CCCCc2ccc(NC(=O)Cc3ccc(Cl)nc3)nn2)nn1 [Example 544, 1-(4-{6-[2-(6-chloropyridin-3-yl)acetamido]pyridazin-3-yl}butyl)-N-methyl-1H-1,2,3-triazole-4-carboxamide] | – | 6.30 to 7.00 | –
15 | CNC(=O)c1cn(CCCCc2ccc(NC(=O)Cc3cncc(Br)c3)nn2)nn1 [Example 546, 1-(4-{6-[2-(5-bromopyridin-3-yl)acetamido]pyridazin-3-yl}butyl)-N-methyl-1H-1,2,3-triazole-4-carboxamide] | – | 6.30 to 7.00 | –
16 | CNC(=O)c1cn(CCCCc2ccc(NC(=O)Cc3cc(-c4ccc(F)cc4C(F)(F)F)ccn3)nn2)nn1 [Example 606, 1-(4-(6-(2-(4-(4-fluoro-2-(trifluoromethyl)phenyl)pyridin-2-yl)acetamido)pyridazin-3-yl)butyl)-N-methyl-1H-1,2,3-triazole-4-carboxamide] | – | > 7.00 | –
17 | CNC(=O)c1cn(CCCCc2ccc(NC(=O)Cc3cc(-c4cccc(OC(F)(F)F)c4F)ccn3)nn2)nn1 [Example 607, 1-(4-(6-(2-(4-(2-fluoro-3-(trifluoromethoxy)phenyl)pyridin-2-yl)acetamido)pyridazin-3-yl)butyl)-N-methyl-1H-1,2,3-triazole-4-carboxamide] | – | > 7.00 | –
18 | CNC(=O)c1cn(CCCCc2ccc(NC(=O)Cc3cc(-c4cccc(Cl)c4OC(F)(F)F)ccn3)nn2)nn1 [Example 608, 1-(4-(6-(2-(4-(3-chloro-2-(trifluoromethoxy)phenyl)pyridin-2-yl)acetamido)pyridazin-3-yl)butyl)-N-methyl-1H-1,2,3-triazole-4-carboxamide] | – | > 7.00 | –
19 | CNC(=O)c1cn(CCCCc2ccc(NC(=O)Cc3cc(-c4cc(F)ccc4C)ccn3)nn2)nn1 [Example 609, 1-(4-(6-(2-(4-(5-fluoro-2-methylphenyl)pyridin-2-yl)acetamido)pyridazin-3-yl)butyl)-N-methyl-1H-1,2,3-triazole-4-carboxamide] | – | > 7.00 | –

The next lines start with results.

Row | pIC50 [1] | pEC50 (A549 cells; A549, 72 h) | SMILES | pEC50 (A549 cells)
20 | > 7.00 | > 7.00 | O=C(Cc1cccc(OC(F)(F)F)c1)Nc1nnc(CCCCn2cc(C(=O)NCc3cccnc3)nn2)s1 [Example 1, N-(pyridin-3-ylmethyl)-1-[4-(5-{2-[3-(trifluoromethoxy)phenyl]acetamido}-1,3,4-thiadiazol-2-yl)butyl]-1H-1,2,3-triazole-4-carboxamide] | –
21 | > 7.00 | > 7.00 | CNC(=O)c1cn(CCCCc2nnc(NC(=O)Cc3cccc(OC(F)(F)F)c3)s2)nn1 [Example 2, N-Methyl-1-(4-(5-(2-(3-(trifluoromethoxy)phenyl)acetamido)-1,3,4-thiadiazol-2-yl)butyl)-1H-1,2,3-triazole-4-carboxamide] | –
22 | > 7.00 | 6.30 to 7.00 | O=C(Cc1cccc(OC(F)(F)F)c1)Nc1nnc(CCCCn2cc(C(=O)NCC3CC3)nn2)s1 [Example 11, N-(cyclopropylmethyl)-1-[4-(5-{2-[3-(trifluoromethoxy)phenyl]acetamido}-1,3,4-thiadiazol-2-yl)butyl]-1H-1,2,3-triazole-4-carboxamide] | –
23 | – | 5.30 to 6.30 | CC(C)NC(=O)c1cn(CCCCc2ccc(NC(=O)Cc3cccc(OC(F)(F)F)c3)nn2)nn1 [Example 526, N-(propan-2-yl)-1-[4-(6-{2-[3-(trifluoromethoxy)phenyl]acetamido}pyridazin-3-yl)butyl]-1H-1,2,3-triazole-4-carboxamide] | –
24 | – | > 7.00 | N#CCNC(=O)c1cn(CCCCc2ccc(NC(=O)Cc3cccc(OC(F)(F)F)c3)nn2)nn1 [Example 527, N-(cyanomethyl)-1-[4-(6-{2-[3-(trifluoromethoxy)phenyl]acetamido}pyridazin-3-yl)butyl]-1H-1,2,3-triazole-4-carboxamide] | –
25 | – | 5.30 to 6.30 | O=C(Cc1cccc(OC(F)(F)F)c1)Nc1ccc(CCCCn2cc(C(=O)NCCO)nn2)nn1 [Example 528, N-(2-hydroxyethyl)-1-[4-(6-{2-[3-(trifluoromethoxy)phenyl]acetamido}pyridazin-3-yl)butyl]-1H-1,2,3-triazole-4-carboxamide] | –
26 | – | > 7.00 | O=C(Cc1cccc(OC(F)(F)F)c1)Nc1ccc(CCCCn2cc(C(=O)NCc3ccccn3)nn2)nn1 [Example 529, N-(pyridin-2-ylmethyl)-1-[4-(6-{2-[3-(trifluoromethoxy)phenyl]acetamido}pyridazin-3-yl)butyl]-1H-1,2,3-triazole-4-carboxamide] | –
27 | – | 5.30 to 6.30 | CNC(=O)c1cn(CCCCc2ccc(NC(=O)Cc3cccnc3)nn2)nn1 [Example 541, N-methyl-1-(4-{6-[2-(pyridin-3-yl)acetamido]pyridazin-3-yl}butyl)-1H-1,2,3-triazole-4-carboxamide] | –
28 | – | 5.30 to 6.30 | CC(C)(O)CNC(=O)c1cn(CCCCc2ccc(NC(=O)Cc3cccc(OC(F)(F)F)c3)nn2)nn1 [Example 549, N-(2-hydroxy-2-methylpropyl)-1-[4-(6-{2-[3-(trifluoromethoxy)phenyl]acetamido}pyridazin-3-yl)butyl]-1H-1,2,3-triazole-4-carboxamide] | –
29 | – | 6.30 to 7.00 | COCCNC(=O)c1cn(CCCCc2ccc(NC(=O)Cc3cccc(OC(F)(F)F)c3)nn2)nn1 [Example 551, N-(2-methoxyethyl)-1-[4-(6-{2-[3-(trifluoromethoxy)phenyl]acetamido}pyridazin-3-yl)butyl]-1H-1,2,3-triazole-4-carboxamide] | –
